Reference: patent publication US20140128367A1, “CYCLOALKYL-FUSED TETRAHYDROQUINOLINES AS CRTH2 RECEPTOR MODULATORS” (Merck Sharp & Dohme Corp., priority 2011, published 2014)
Where two headings read alike, the source gives them in different places.

Key:
hCRTH2 [1] = biological target: T1, hCRTH2 (Homo sapiens, UniProt Q9Y5Y4); parameters: expressed in transfected cells; host or cells: HEK (human embryonic kidney) cell line expressing hCRTH2; conditions: Radioligand Binding Assay B, 0.7 nM [3H]PGD2, HEK-hCRTH2 membranes; rated A-D
T1 sequence (Q9Y5Y4 1-395): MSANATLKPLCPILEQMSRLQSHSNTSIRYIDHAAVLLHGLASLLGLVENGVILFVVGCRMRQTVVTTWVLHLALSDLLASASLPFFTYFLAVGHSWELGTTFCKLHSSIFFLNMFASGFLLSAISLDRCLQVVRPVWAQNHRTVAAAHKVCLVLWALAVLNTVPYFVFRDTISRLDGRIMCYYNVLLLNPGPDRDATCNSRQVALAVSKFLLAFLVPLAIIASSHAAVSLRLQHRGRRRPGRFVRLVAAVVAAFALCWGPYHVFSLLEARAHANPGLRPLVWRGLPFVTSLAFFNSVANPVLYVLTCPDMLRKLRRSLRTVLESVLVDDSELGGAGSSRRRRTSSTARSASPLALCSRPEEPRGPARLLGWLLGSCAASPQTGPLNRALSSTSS
Description: Radioligand Binding Assay B.
Competing ligands were diluted in dimethylsulfoxide (Me2SO) that was kept constant at 1% (v/v) of the final incubation volume. The reaction was initiated by the addition of 8-20 μg of membrane protein prepared from a HEK-hCRTH2 cell line. Total and non-specific binding were determined in the absence and the presence of 10 μM PGD2, respectively. Under these conditions, specific binding (total minus non-specific) of the radioligand to the receptor reached equilibrium within 50 min and was stable up to 180 min. The reaction was routinely conducted for 60 min at room temperature and terminated by rapid filtration through prewetted Unifilters GF/C (Packard), using a Tomtec MachIII semi-automated harvester (for HEK-hCRTH2). The filters were then washed with 4 mL of the same buffer and residual radioligand bound to the filter was determined by liquid scintillation counting following equilibration in 25 μl Ultima Gold F™ (Unifilter) (Packard).

hCRTH2 [2] = biological target: T1, hCRTH2; assay: biochemical; conditions: Radioligand Binding Assay A, 3.0 nM [3H]PGD2, HEK-hCRTH2 membranes
Description: Radioligand Binding Assay A.
Competing ligands were diluted in dimethylsulfoxide (Me2SO) that was kept constant at 1% (v/v) of the final incubation volume. The reaction was initiated by the addition of 8-20 μg of membrane protein prepared from a human embryonic kidney (HEK)-hCRTH2 cell line. Total and non-specific binding were determined in the absence and the presence of 10 μM PGD2, respectively. Under these conditions, specific binding (total minus non-specific) of the radioligand to the receptor reached equilibrium within 50 min and was stable up to 180 min. The reaction was routinely conducted for 60 min at room temperature and terminated by rapid filtration through prewetted (0.3% polyethyleneimine) 96-well printed Filtermate™ (Wallac) using a Tomtec® harvester (Hamden, Conn.). After washing with cold buffer, the filter was dried for 2 minutes in microwave, and Meltilex Scintillator sheet (Wallac) was melted on for 2 min.

Row | Structure (SMILES) | Ki (hCRTH2 [1]) [nM] | Ki (hCRTH2 [2]) [nM]
1 | O=C(O)CCC(=O)N(C1CC1)[C@@H]1c2ccc(F)cc2N(C(=O)c2ccccc2)[C@@H]2CCC[C@@H]21 (racemic) [16D, 4-{cyclopropyl[cis, cis-6-fluoro-4-(phenylcarbonyl)-2,3,3a,4,9,9a-hexahydro-1H-cyclopenta[b]quinolin-9-yl]amino}-4-oxobutanoic acid] | 20.1 to 200 | 
2 | CCc1ccc(C(=O)N2c3cc(Cl)ccc3C(N(C(=O)CCC(=O)O)C3CCC3)C3CCCC32)cc1 (single isomer, unassigned) [17CQ, 4-[[cis, cis-6-chloro-4-(4-ethylbenzoyl)-2,3,3a,4,9,9a-hexahydro-1H-cyclopenta[b]quinolin-9-yl]cyclobutylamino]-4-oxobutanoic acid] |  | 2.4
